Results on 1 molecule are retold here after ChEMBL document CHEMBL4680278 (J Med Chem, 2020).

The nature of data set [1]: Protein binding in human plasma incubated for 20 to 24 hrs. It counts as ADME, cell-free. Particulars: time 20-24 hrs, read-out: PPB (converted).
For another data set, the target named is Cytochrome P450 3A7 (Homo sapiens, UniProt P24462). The data set is described as follows: Mixed type inhibition of human recombinant CYP3A7 expressed in baculovirus-infected insect cells using diltiazem as substrate incubated for 30 mins followed by NADPH-generating system addition by Michaelis-Menten plot analysis. It counts as ADME.
For the next data set, the target named is D(1A) dopamine receptor (Homo sapiens, UniProt P21728). Put plainly: Inhibition of D1 dopamine receptor (unknown origin).
Data set [2] in a line: Apparent oral clearance in human at 5 to 20 mg using oromucosal-spray formulation by GC-MS analysis. Type of data set: ADME. Particulars: in vivo, dose 5-20 mg.
Data set [3] in a line: Drug degradation in simulated gastric fluid at 40 mg incubated for 2 hrs by UPLC-MS analysis. Type of data set: ADME. Particulars: read-out: Drug degradation.
In the next data set the target is T1, Cytochrome P450 1B1 (Homo sapiens, UniProt Q16678).
T1 sequence (Q16678 whole entry): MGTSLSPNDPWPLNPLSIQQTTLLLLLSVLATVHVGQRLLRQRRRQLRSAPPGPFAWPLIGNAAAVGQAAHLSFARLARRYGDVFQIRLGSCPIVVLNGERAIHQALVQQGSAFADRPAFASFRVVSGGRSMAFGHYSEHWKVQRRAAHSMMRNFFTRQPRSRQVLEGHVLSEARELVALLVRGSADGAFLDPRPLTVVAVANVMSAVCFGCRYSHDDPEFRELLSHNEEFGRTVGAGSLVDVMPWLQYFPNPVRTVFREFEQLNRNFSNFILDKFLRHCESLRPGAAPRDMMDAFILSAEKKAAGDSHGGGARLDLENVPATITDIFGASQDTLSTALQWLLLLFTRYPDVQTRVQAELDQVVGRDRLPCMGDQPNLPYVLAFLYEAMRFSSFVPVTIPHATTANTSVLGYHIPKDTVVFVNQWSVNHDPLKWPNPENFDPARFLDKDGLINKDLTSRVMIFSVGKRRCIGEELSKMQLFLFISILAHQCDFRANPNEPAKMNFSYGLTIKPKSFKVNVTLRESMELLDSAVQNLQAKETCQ
Put plainly: Competitive inhibition of human recombinant CYP1B1 using 7-Ethoxyresorufin as substrate by Lineweaver-Burk plot analysis. It counts as ADME. Particulars: read-out: Ki(app).

The next data set addresses T2, Cytochrome P450 2A6 (Homo sapiens, UniProt P11509).
T2 sequence (P11509 whole entry): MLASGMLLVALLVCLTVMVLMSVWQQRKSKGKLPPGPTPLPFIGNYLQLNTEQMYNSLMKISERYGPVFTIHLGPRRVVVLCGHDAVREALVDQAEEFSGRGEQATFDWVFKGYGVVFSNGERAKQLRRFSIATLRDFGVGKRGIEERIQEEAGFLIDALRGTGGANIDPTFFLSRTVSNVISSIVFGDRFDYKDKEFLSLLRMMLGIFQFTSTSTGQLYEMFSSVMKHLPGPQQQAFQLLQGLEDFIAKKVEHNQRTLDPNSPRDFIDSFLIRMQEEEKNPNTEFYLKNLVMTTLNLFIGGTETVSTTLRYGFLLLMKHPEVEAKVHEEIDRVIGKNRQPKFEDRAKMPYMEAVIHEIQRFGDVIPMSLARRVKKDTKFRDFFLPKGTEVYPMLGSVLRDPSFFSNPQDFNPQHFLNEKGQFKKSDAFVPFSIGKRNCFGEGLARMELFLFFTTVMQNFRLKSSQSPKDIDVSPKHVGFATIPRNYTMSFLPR
The data set is described as follows: Non-competitive inhibition of human recombinant CYP2A6 expressed in baculovirus-infected insect cells using coumarin as substrate preincubated for 5 mins followed by NADPH-generating system addition by Lineweaver-Burk plot analysis. Type of data set: ADME.

The nature of data set [4]: Half-life in human at 20 mg, iv measured after 0.05 to 72 hrs by gas chromatograph mass spectrometry. Type of data set: ADME, organism-based. Particulars: in vivo, time 0.05-72 hrs.
Data set [5] can be described thus: Critical aggregation concentration of compound by dynamic light scattering. It counts as physicochemical.
The target in data set [6] is T3, 5-hydroxytryptamine receptor 1A (Homo sapiens, UniProt P08908).
T3 sequence (P08908 whole entry): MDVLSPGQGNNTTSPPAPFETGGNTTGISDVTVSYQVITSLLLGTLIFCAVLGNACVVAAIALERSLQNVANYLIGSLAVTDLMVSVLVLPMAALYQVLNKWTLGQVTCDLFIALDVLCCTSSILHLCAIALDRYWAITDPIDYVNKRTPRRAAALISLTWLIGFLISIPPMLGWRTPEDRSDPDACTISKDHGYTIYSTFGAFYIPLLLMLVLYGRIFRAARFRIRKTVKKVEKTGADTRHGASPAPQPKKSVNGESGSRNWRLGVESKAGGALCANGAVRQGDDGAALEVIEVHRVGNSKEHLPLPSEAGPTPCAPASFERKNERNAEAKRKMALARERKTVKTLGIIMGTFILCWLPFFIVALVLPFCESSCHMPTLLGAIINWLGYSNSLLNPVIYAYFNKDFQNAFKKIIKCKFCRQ
Put plainly: Displacement of [3H]8-OH-DPAT from human 5-HT1a receptor expressed in CHO cells incubated for 30 mins by liquid scintillation counting method. Background: Displacement assays read how much labelled ligand stays bound in the presence of the test substance.

A short description of data set [7]: Cmax in human plasma at 3.5 +/- 5.5 mg, INH. Further details: dose 3.5 mg. Particulars: inhaled or intranasal, 3.5 mg. Type of data set: ADME, cell-free.
A short description of data set [8]: Apparent oral clearance in human in fed state at 5 to 20 mg using oromucosal-spray formulation cotreated with THC by GC-MS analysis. It counts as ADME. Particulars: in vivo, dose 5-20 mg.
The nature of data set [9]: Cmax in mouse brain at 10 mg/kg, sc measured after 1 to 3 hrs by HPLC analysis. Type of data set: ADME, organism-based. Further details: route subcutaneous, time lower 1 hrs, dose 10 mg/kg, time upper 3 hrs.
Data set [10] deals with T4, Alpha-2C adrenergic receptor (Homo sapiens, UniProt P18825).
T4 sequence (P18825 whole entry): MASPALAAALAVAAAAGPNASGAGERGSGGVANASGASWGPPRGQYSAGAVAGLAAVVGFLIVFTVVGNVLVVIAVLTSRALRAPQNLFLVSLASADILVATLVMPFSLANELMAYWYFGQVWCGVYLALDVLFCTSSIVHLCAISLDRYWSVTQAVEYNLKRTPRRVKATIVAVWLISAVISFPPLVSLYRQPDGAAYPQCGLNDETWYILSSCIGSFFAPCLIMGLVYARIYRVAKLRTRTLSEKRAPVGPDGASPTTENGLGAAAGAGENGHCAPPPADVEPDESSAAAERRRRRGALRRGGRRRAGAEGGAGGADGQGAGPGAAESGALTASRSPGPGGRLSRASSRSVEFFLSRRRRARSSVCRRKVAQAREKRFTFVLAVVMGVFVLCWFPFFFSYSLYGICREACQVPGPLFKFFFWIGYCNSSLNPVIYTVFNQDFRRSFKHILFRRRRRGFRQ
The data set is described as follows: Inhibition of alpha2C receptor (unknown origin).

Another data set deals with Cytochrome P450 3A5 (Homo sapiens, UniProt P20815). Put plainly: Competitive inhibition of human recombinant CYP3A5 expressed in baculovirus-infected insect cells using diltiazem as substrate incubated for 15 mins followed by NADPH-generating system addition by Michaelis-Menten plot analysis. It counts as ADME.
A short description of data set [11]: Elimination half-life in human at 10 mg using oromucosal-spray formulation measured upto 24 hrs by LC-MS/MS assay. Particulars: in vivo, read-out: beta t1/2 (converted). Type of data set: ADME.
Data set [12] in a line: Elimination half-life in human at 10 mg, po using PTL401 formulation measured upto 24 hrs by LC-MS/MS assay. It counts as ADME, organism-based. Particulars: in vivo, read-out: beta t1/2 (converted).

pEC50, pKi: −log10 of the molar value.

The pKi is −log10 of the Ki, conventionally taken in molar units. As a reminder, the CL/F is the apparent clearance, not corrected for the fraction that reaches the circulation. As a reminder, the pEC50 is the EC50 on a negative log10 scale, so that one unit is a factor of ten. High values mean a small EC50, low ones a large EC50. By Cmax is commonly meant the maximum level reached in the sampled fluid or tissue.

Cytochrome P450 3A5, sequence (P20815 whole entry): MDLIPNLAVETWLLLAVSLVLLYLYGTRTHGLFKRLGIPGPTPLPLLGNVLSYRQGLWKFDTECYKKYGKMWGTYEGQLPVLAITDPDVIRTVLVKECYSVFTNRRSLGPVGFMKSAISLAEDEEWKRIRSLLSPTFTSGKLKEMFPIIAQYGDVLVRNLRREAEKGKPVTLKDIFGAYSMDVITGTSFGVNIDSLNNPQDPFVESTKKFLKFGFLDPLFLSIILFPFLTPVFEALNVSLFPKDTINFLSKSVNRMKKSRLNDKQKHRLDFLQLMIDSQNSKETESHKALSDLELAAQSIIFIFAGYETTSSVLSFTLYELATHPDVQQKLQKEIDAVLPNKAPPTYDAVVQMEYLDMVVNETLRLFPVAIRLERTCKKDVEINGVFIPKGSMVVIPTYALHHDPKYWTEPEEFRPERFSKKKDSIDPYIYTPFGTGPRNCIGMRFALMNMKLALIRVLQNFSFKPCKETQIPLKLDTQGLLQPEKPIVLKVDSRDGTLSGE
D(1A) dopamine receptor, sequence (P21728 whole entry): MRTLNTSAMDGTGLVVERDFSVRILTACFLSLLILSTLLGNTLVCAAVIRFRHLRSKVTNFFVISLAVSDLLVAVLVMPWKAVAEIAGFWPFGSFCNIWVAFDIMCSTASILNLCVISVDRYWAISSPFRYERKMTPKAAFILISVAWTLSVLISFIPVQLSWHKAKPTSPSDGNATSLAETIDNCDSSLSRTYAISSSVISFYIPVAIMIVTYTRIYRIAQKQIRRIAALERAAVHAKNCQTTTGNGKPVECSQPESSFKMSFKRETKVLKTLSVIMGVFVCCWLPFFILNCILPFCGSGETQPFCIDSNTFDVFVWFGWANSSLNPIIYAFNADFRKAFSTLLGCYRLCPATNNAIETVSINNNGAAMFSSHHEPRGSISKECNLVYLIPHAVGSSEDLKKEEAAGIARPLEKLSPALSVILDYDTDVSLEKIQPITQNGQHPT
Cytochrome P450 3A7, sequence (P24462 whole entry): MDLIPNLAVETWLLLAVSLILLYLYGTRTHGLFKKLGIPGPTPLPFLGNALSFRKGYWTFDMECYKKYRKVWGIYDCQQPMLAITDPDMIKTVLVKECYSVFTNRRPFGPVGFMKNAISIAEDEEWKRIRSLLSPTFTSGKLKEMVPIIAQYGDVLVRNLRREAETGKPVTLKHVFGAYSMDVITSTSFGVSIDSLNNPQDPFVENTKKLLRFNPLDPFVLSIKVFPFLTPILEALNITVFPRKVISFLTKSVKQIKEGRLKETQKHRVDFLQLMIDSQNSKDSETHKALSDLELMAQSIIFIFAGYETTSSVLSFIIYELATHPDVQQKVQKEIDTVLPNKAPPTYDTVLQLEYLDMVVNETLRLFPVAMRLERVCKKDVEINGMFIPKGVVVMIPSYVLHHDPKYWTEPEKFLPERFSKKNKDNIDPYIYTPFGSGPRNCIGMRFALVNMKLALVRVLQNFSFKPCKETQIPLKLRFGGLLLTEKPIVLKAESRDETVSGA

In the case of `C=C(C)[C@@H]1CCC(C)=C[C@H]1c1c(O)cc(CCCCC)cc1O` [CANNABIDIOL], the fraction unbound in data set [1] was 0.1. For the same molecule, the pKi at Cytochrome P450 3A7 is 4.91; at D(1A) dopamine receptor it was 5.57; at Cytochrome P450 1B1, 5.44; on Cytochrome P450 2A6, 4.26; in data set [10], 5.43; on Cytochrome P450 3A5, 6.72. The CL/F in data set [2] is 41700 mL/min; in data set [8], 8880 mL/min. Besides, the degraded at 2 h in data set [3] is 98%. Besides, the half-life in data set [4] is 24 h; in data set [11] it was 2 h; in [12], 2 h. In [5], this molecule came in with a CAC of 12.5 µM. For the same molecule, in [6], the pEC50 was 5.10. The figures for the Cmax in data set [7] and in data set [9] were 11.1 nM and 1000 nM, respectively.
